Values of other authors as cited in patent US20220409549A1, “ORAL PRODUCT TABLET AND METHOD OF MANUFACTURE” (NICOVENTURES TRADING LIMITED, priority 2021, published 2022).
Like-named read-outs stand apart in the source and are kept apart here. Values belong to the molecule of their own block, whether it stands above or below them.

Columns and labels:
[1] = for solubility: fats, alcohols, water
[2] = for logP: organic acids of Table 1, octanol and water
[3] = converts via isomerization into trans-bixin

Molecule: C=C(C)[C@@H]1CCC(C)=C[C@H]1c1c(O)cc(CCCCC)cc1O [CBD, cannabidiol, reference compound]
- solubility in an aqueous environment (e.g., saliva) [1]: insoluble
- logP value ([2]; CBD): about 6.5

Molecule: ethyl benzoic acid
- logP [2]: 2.9

Molecule: CN1CCCC1c1cccnc1 (centres unmarked) [nicotine, reference compound]
- partitioning into octanol ([2]; acidic pH values, about 6.5 to about 4, protonated form): lower partitioning into octanol
- partitioning into octanol ([2]; alkaline pH values, about 7.5 to about 9, free base form): high partitioning into octanol

Molecule: tocopherol succinate
- logP [2]: 10.2

Molecule: CC(C)[C@@H]1CC[C@@H](C)C[C@H]1OC(=O)CCC(=O)O [monomenthyl succinate]
- logP [2]: 3

- chemical stability when isolated [3]: chemically unstable
Molecule: COC(=O)/C=C/C(C)=C\C=C\C(C)=C\C=C\C=C(C)\C=C\C=C(C)\C=C\C(=O)O [bixin]
- solubility [1]: soluble in fats and alcohols but insoluble in water

Molecule: isopropyl benzoic acid
- logP [2]: 3.5

- solubility [1]: water soluble
Molecule: CC(/C=C/C=C(C)/C=C/C(=O)O)=C\C=C\C=C(C)\C=C\C=C(C)\C=C\C(=O)O (stereo in doubt) [norbixin, (2E,4E,6E,8E,10E,12E,14E,16E,18E)-4,8,13,17-tetramethylicosa-2,4,6,8,10,12,14,16,18-nonaenedioic acid]
